Experimental data reported in PubChem BioAssay AID1963963 (Molecular Pharmacology Branch, DTP, NCI, 2024).

System: 958667-338-R-J2-PDC tumor spheroids viability
Assay: Anticancer human tumor 958667-338-R-J2-PDC patient-derived colon adenocarcinoma cell line growth inhibition [PI3K]
Conditions: spheroids with HUVEC and MSC; for IC50: curve of first compound; for viability, T/C: stronger effect = lower value
Procedure, shortened: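 We assembled tumor spheroids that included a stromal compartment of HUVEC and MSCs, then exposed them to targeted agents alone and together with PI3K pathway inhibitors. Concentration series descended by half-log from clinically achievable Cmax levels. Viability served as the endpoint.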
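Note: spheroids exposed to compounds for seven days before readout.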

Work on `Cn1ncnc1[C@H]1c2n[nH]c(=O)c3cc(F)cc(c23)N[C@@H]1c1ccc(F)cc1` + Cc1nc(NC(=O)N2CCCC2C(N)=O)sc1-c1ccnc(C(C)(C)C(F)(F)F)c1 yielded an IC50 (second compound 0.0316 µM) greater than 0.1 µM, an IC50 (second compound 0.1 µM) greater than 0.1 µM and an IC50 (second compound 0.316 µM) greater than 0.1 µM. For the same compound, the IC50 (second compound 1 µM) was greater than 0.1 µM, the IC50 (second compound 3.16 µM) was greater than 0.1 µM and the IC50 (second compound 10 µM) was greater than 0.1 µM. For the same compound, the viability, T/C (second compound 0.0316 µM, first compound 0.000316 µM) was 98.7%, the viability, T/C (second compound 0.0316 µM, first compound 0.001 µM) was 92% and the viability, T/C (second compound 0.0316 µM, first compound 0.00316 µM) was 113%. It also gave a viability, T/C (second compound 0.0316 µM, first compound 0.01 µM) of 106%, a viability, T/C (second compound 0.0316 µM, first compound 0.0316 µM) of 94.5% and a viability, T/C (second compound 0.0316 µM, first compound 0.1 µM) of 107%. It also gave a viability, T/C (second compound 0.1 µM, first compound 0.000316 µM) of 98%, a viability, T/C (second compound 0.1 µM, first compound 0.001 µM) of 96.7% and a viability, T/C (second compound 0.1 µM, first compound 0.00316 µM) of 83.2%. It also gave a viability, T/C (second compound 0.1 µM, first compound 0.01 µM) of 101%, a viability, T/C (second compound 0.1 µM, first compound 0.0316 µM) of 91.7% and a viability, T/C (second compound 0.1 µM, first compound 0.1 µM) of 93%. The viability, T/C (second compound 0.316 µM, first compound 0.000316 µM) was 81.4%, the viability, T/C (second compound 0.316 µM, first compound 0.001 µM) was 109% and the viability, T/C (second compound 0.316 µM, first compound 0.00316 µM) was 82.4%. It also gave a viability, T/C (second compound 0.316 µM, first compound 0.01 µM) of 102%, a viability, T/C (second compound 0.316 µM, first compound 0.0316 µM) of 87% and a viability, T/C (second compound 0.316 µM, first compound 0.1 µM) of 71.2%. It also gave a viability, T/C (second compound 1 µM, first compound 0.000316 µM) of 83.2%, a viability, T/C (second compound 1 µM, first compound 0.001 µM) of 86.4% and a viability, T/C (second compound 1 µM, first compound 0.00316 µM) of 101%. The viability, T/C (second compound 1 µM, first compound 0.01 µM) was 82.6%, the viability, T/C (second compound 1 µM, first compound 0.0316 µM) was 78.4% and the viability, T/C (second compound 1 µM, first compound 0.1 µM) was 79.5%. It also gave a viability, T/C (second compound 3.16 µM, first compound 0.000316 µM) of 78.4%, a viability, T/C (second compound 3.16 µM, first compound 0.001 µM) of 78.7% and a viability, T/C (second compound 3.16 µM, first compound 0.00316 µM) of 85.8%. For the same compound, the viability, T/C (second compound 3.16 µM, first compound 0.01 µM) was 72.5%, the viability, T/C (second compound 3.16 µM, first compound 0.0316 µM) was 82.8% and the viability, T/C (second compound 3.16 µM, first compound 0.1 µM) was 91.3%. It also gave a viability, T/C (second compound 10 µM, first compound 0.000316 µM) of 57.9%, a viability, T/C (second compound 10 µM, first compound 0.001 µM) of 64.8% and a viability, T/C (second compound 10 µM, first compound 0.00316 µM) of 73.3%. The viability, T/C (second compound 10 µM, first compound 0.01 µM) was 60.8%, the viability, T/C (second compound 10 µM, first compound 0.0316 µM) was 72.7% and the viability, T/C (second compound 10 µM, first compound 0.1 µM) was 60.8%.
